Measurements from US9943529B2, “Methods for reducing cellular proliferation and treating certain diseases” (BRIGHAM YOUNG UNIVERSITY, priority 2013, dated 2018).

Tests used:
Details in all cases: 10 μM, 48 hours
SW-620 = test: NCI screen antiproliferative activity, sulforhodamine B, Colon Cancer panel; type: cell-based, human
MALME-3M = test: NCI screen antiproliferative activity, sulforhodamine B, Melanoma panel; type: cell-based, human
MCF7 = tested on: MCF7
SN12C = tested on: SN12C
PC-3 = tested on: PC-3
HCT-116 = tested on: HCT-116
UO-31 = tested on: UO-31
UACC-62 = tested on: UACC-62
LOX IMVI = test: NCI screen antiproliferative activity, sulforhodamine B, Melanoma panel; type: cell-based, human
OVCAR-8 = tested on: OVCAR-8
HCT-15 = tested on: HCT-15
OVCAR-4 = tested on: OVCAR-4
HS 578T = test: NCI screen antiproliferative activity, sulforhodamine B, Breast Cancer panel; type: cell-based, human
NCI/ADR-RES = test: NCI screen antiproliferative activity, sulforhodamine B, Ovarian Cancer panel; type: cell-based, human
Description: (§1) The antiproliferative activity of compounds were determined in the National Cancer Institute (NCI) screen (Drug. Dev. Res. 1995, 34, 91-109; J. Natl. Cancer Inst. 1990, 82, 1107-1112; Drug Dev. Res. 1995, 34, 91-109). For certain compounds, cells of approximately 60 different human cancer cell lines were incubated for 48 hours with five 10-fold dilutions of the tested compounds starting from 100 μM and then treated with sulforhodamine B dye. For other compounds, cells of approximately 60 different human cancer cell lines were incubated for 48 hours with a concentration of 10 μM test compound. The ratios of recorded optical densities relative to that of the control were plotted as a function of the common logarithm of the tested compound concentrations or growth percent (for single concentration tests). The interpolation between the points located above and below the 50% percentage growth provided 50% growth inhibition (GI50) values. Total growth inhibition (TGI) and 50% lethal concentrations (LC50) were also calculated using reported methods. A “-” means not tested and/or not-determined.

SK-MEL-28 = tested on: SK-MEL-28
MDA-MB-468 = test: NCI screen antiproliferative activity, sulforhodamine B, Breast Cancer panel; type: cell-based, human
Description: as §1

K-562 = test: NCI screen antiproliferative activity, sulforhodamine B, Leukemia panel; type: cell-based, human
SK-OV-3 = tested on: SK-OV-3
M14 = tested on: M14
HT29 = tested on: HT29
MDA-MB-231/ATCC = tested on: MDA-MB-231/ATCC
A498 = test: NCI screen antiproliferative activity, sulforhodamine B, Renal Cancer panel; type: cell-based, human
Description: as §1

HL-60(TB) = test: NCI screen antiproliferative activity, sulforhodamine B, Leukemia panel; type: cell-based, human
Description: as §1

CCRF-CEM = test: as above; type: cell-based, human
Description: as §1

RPMI-8226 = test: as above; type: cell-based, human
NCI-H460 = tested on: NCI-H460
HOP-92 = tested on: HOP-92
NCI-H322M = tested on: NCI-H322M
NCI-H23 = tested on: NCI-H23
KM12 = test: NCI screen antiproliferative activity, sulforhodamine B, Colon Cancer panel; type: cell-based, human
NCI-H226 = tested on: NCI-H226
SNB-75 = tested on: SNB-75
SF-268 = tested on: SF-268
OVCAR-3 = tested on: OVCAR-3
CAKI-1 = tested on: CAKI-1
COLO 205 = test: NCI screen antiproliferative activity, sulforhodamine B, Colon Cancer panel; type: cell-based, human
SK-MEL-2 = tested on: SK-MEL-2
MOLT-4 = test: NCI screen antiproliferative activity, sulforhodamine B, Leukemia panel; type: cell-based, human
BT-549 = tested on: BT-549
OVCAR-5 = tested on: OVCAR-5
DU-145 = tested on: DU-145
A549/ATCC = tested on: A549/ATCC
HCC-2998 = tested on: HCC-2998
SK-MEL-5 = test: NCI screen antiproliferative activity, sulforhodamine B, Melanoma panel; type: cell-based, human
T-47D = tested on: T-47D
TK-10 = tested on: TK-10
786-0 = tested on: 786-0
NCI-H522 = tested on: NCI-H522
SF-539 = tested on: SF-539
RXF 393 = tested on: RXF 393
HOP-62 = tested on: HOP-62
SNB-19 = tested on: SNB-19
SR = test: NCI screen antiproliferative activity, sulforhodamine B, Leukemia panel; type: cell-based, human
IGROV1 = tested on: IGROV1
ACHN = tested on: ACHN
MDA-MB-435 = tested on: MDA-MB-435

## CCCCCCCCOC(=O)CC[C@@H](C)[C@H]1CC[C@H]2[C@@H]3[C@H](OC(=O)CCN)C[C@@H]4C[C@H](OC(=O)CCN)CC[C@]4(C)[C@H]3C[C@H](OC(=O)CCN)[C@]12C [CSA-44]
SW-620
  Growth Percent: 20.01%
MALME-3M
  Growth Percent: 67.83%
MCF7
  Growth Percent: 10.84%
SN12C
  Growth Percent: 77.59%
PC-3
  Growth Percent: 87.30%
HCT-116
  Growth Percent: 49.30%
UO-31
  Growth Percent: 104.69%
UACC-62
  Growth Percent: 103.61%
LOX IMVI
  Growth Percent: 63.17%
OVCAR-8
  Growth Percent: 69.53%
HCT-15
  Growth Percent: 101.79%
OVCAR-4
  Growth Percent: 75.66%
HS 578T
  Growth Percent: 79.51%
NCI/ADR-RES
  Growth Percent: 100.83%
SK-MEL-28
  Growth Percent: 58.43%
MDA-MB-468
  Growth Percent: 3.95%
K-562
  Growth Percent: −74.53%
SK-OV-3
  Growth Percent: 90.91%
M14
  Growth Percent: 84.43%
HT29
  Growth Percent: 39.62%
MDA-MB-231/ATCC
  Growth Percent: 69.26%
A498
  Growth Percent: 130.78%
HL-60(TB)
  Growth Percent: 43.69%
CCRF-CEM
  Growth Percent: −37.46%
RPMI-8226
  Growth Percent: 77.75%
NCI-H460
  Growth Percent: 73.70%
HOP-92
  Growth Percent: 40.75%
NCI-H322M
  Growth Percent: 71.42%
NCI-H23
  Growth Percent: 90.31%
KM12
  Growth Percent: 77.75%
NCI-H226
  Growth Percent: 89.76%
SNB-75
  Growth Percent: 63.88%
SF-268
  Growth Percent: 69.72%
OVCAR-3
  Growth Percent: 107.53%
CAKI-1
  Growth Percent: 107.94%
COLO 205
  Growth Percent: 66.35%
SK-MEL-2
  Growth Percent: 126.21%
MOLT-4
  Growth Percent: 26.15%
BT-549
  Growth Percent: 124.30%
OVCAR-5
  Growth Percent: 92.12%
DU-145
  Growth Percent: 74.35%
A549/ATCC
  Growth Percent: 81.31%
HCC-2998
  Growth Percent: 84.20%
SK-MEL-5
  Growth Percent: 96.98%
T-47D
  Growth Percent: 88.83%
TK-10
  Growth Percent: 135.94%
786-0
  Growth Percent: 99.05%
NCI-H522
  Growth Percent: 10.80%
SF-539
  Growth Percent: 56.26%
RXF 393
  Growth Percent: 108.72%
HOP-62
  Growth Percent: 37.66%
SNB-19
  Growth Percent: 115.74%
SR
  Growth Percent: −12.92%
IGROV1
  Growth Percent: 77.22%
ACHN
  Growth Percent: 96.19%
MDA-MB-435
  Growth Percent: 74.13%
